{
  "source": "paper PMC8329197",
  "about": "“Compounds targeting OSBPL7 increase ABCA1-dependent cholesterol efflux preserving kidney function in two models of kidney disease” (Nature Communications, 2021)",
  "key": {"human THP1 macrophages": {"system": "human THP1 macrophages", "experiment": "apoAI-mediated (ABCA1) cholesterol efflux from cholesterol-loaded THP1 macrophages", "format": "cell-based", "set-up": "ABCA1 Efflux %: dose or concentration left out as unconfirmed"}, "ABCA1 protein": {"system": "ABCA1 protein", "experiment": "ABCA1 western blot in podocyte whole-cell lysates", "format": "cell-based, human", "conditions": "Cpd G 10 µM, Cpd A 5 µM; podocytes", "procedure": "Cell lines were purchased from ATCC and subcultured for no more than passage 15, except for human podocytes, which were originally from Dr Jochen Reiser. Conditionally immortalized human podocytes were cultured under permissive conditions at 33 °C, in RPMI medium (Corning) containing 10% FBS (GIBCO), 1% penicillin/streptomycin, 0.01 mg/ml recombinant human insulin, 0.0055 mg/ml human transferrin (substantially iron-free), and 0.005 μg/ml sodium selenite (ITS, Corning). To induce differentiation, podocytes were cultured at 37 °C for 14 days in RPMI medium containing 10% FBS (GIBCO) and 1% penicillin/streptomycin. Differentiated podocytes were starved in RPMI-0.2% FBS for 18 h and then treated with 1 μM, 5 μM, and 10 μM of compounds freshly prepared in DMSO for 18 h at 37 °C as indicated.\nLysates, or cell fractions were incubated in Laemmli buffer at 55 °C for 10 min under reducing conditions. A total of 30 μg of protein from cell lysates or one-third of the volume collected in cell fraction preparations was separated by SDS-PAGE in 4–20% gradient gels (Biorad) and proteins were then transferred to PVDF membranes. […] Signals were detected after incubation with Westernbright ECL HRP substrate (Advansta) and luminescence signals were captured with Azure C600 Gel Imaging workstation (Azure Biosystems Inc, USA) or X-ray films."}, "[1]": {"experiment": "Rat single-dose pharmacokinetics", "conditions": "in vivo"}, "Col4a3 KO mice [2]": {"system": "Col4a3 KO mice", "experiment": "Alport syndrome model: mesangial expansion score in PAS-stained kidney sections", "format": "in vivo, mouse", "conditions": "age 8 weeks, Cpd G 100 mg/Kg/day", "procedure": "Formalin-fixed paraffin-embedded kidney cortex sections 4 μm thick were stained with Periodic acid-Schiff (PAS). The slides were analyzed by a renal pathologist in a double-blind design. Glomerular sclerosis, (global and segmental), podocyte hypertrophy and podocyte hyperplasia were expressed as the percentage of glomeruli found with these abnormalities. Tubular microcysts and interstitial inflammation were scored on a 0–4 scale where 0 = 0%, 0.5 = 1–10%, 1 = 11–25%, 2: 26–50 %, 3: 51–75%, and 4 = more than 75% damage."}, "Col4a3 KO mice [3]": {"system": "Col4a3 KO mice", "experiment": "Alport syndrome model: kidney cortex cholesterol ester, total cholesterol, triglycerides", "format": "in vivo, mouse", "procedure": "Snap frozen kidney cortex samples were homogenized in 2 mM potassium phosphate buffer, pH 7, (10 µl buffer/mg tissue) using a glass douncer on ice. 100 μl of the homogenate were mixed thoroughly with 1 ml of hexane:isopropanol (3:2;v:v) per volume of tissue homogenate. The aqueous (pellet) and organic (supernatant) phases were separated by centrifugation at 12,000 × g for 5 min. Pellets (aqueous phase) were dried, reconstituted in 8 M urea, 0.1% SDS, 0.1 M NaOH, and total proteins were quantified by the BCA method (Thermofisher). The organic phase was dried by exposure to nitrogen. Lipids were then reconstituted in 100 µl isopropanol:NP-40 (9:1;v:v). Triglyceride content was assayed using a colorimetric kit according to the manufacturer’s instructions (Cayman Chemical USA). Total cholesterol and CE content were assayed using an enzymatic fluorometric method. For total cholesterol measurement, extracts were diluted 1:100 in assay buffer (100 mM potassium phosphate, 50 mM NaCl, 5 mM cholic acid, 0.1% Triton […], pH 7.4) containing cholesterol oxidase (1 U/ml), cholesterol esterase (1 U/ml), horseradish peroxidase (1 U/ml), and Amplex Red (75 µM). The reactions were incubated at 37 °C for 30 min in a black opaque 96-well plate (Greiner) and fluorescence was measured in a microplate reader (Spectramax i3X, Molecular Devices) at 530 nm excitation and 580 emission.\nFor CE determination, 150 µl of the assay buffer described above, supplemented with bovine liver catalase (45 U/ml) and cholesterol oxidase (1 U/ml), was added to 25 μl of sample and incubated overnight at 37 °C to deplete free cholesterol leaving only cholesterol esters. Then, 75 µl of cholesterol ester detection reagent (1 U/ml cholesterol oxidase, 4 U/ml cholesterol esterase, 24 U/ml horseradish peroxidase, 300 µM Amplex Red) was added. The reaction was incubated at 37 °C for 30 min and the fluorescence signal was measured as described above. Internal standards included samples containing 1 mM of cholesterol and 5 μM of cholesterol oleate in order to verify the completeness of the enzymatic decomposition of free cholesterol as well as assay sensitivity and specificity."}, "[4]": {"system": "Adriamycin (ADR)-induced nephropathy in Balb/c mice", "experiment": "ADR nephropathy: IL-1β and MCP-1 mRNA in kidney cortex", "format": "in vivo, mouse", "procedure": "RNA was isolated using RNEasy Plus Mini kit (Qiagen). Reverse transcription was performed using qScript cDNA Super Mix (Quantabio) according to the manufacturer’s instructions. Quantitative real-time PCR was performed using TaqMan Fast Universal PCR Master Mix and Taqman gene expression assays (Supplementary Table 7)."}, "Col4a3 KO mice [5]": {"system": "Col4a3 KO mice", "experiment": "Alport syndrome model: survival study, treatment from 6 weeks of age"}, "Covalent Binding": {"experiment": "Covalent Binding", "format": "in vitro ADME"}, "Hepatocytes Clint, human": {"experiment": "Hepatocytes Clint, human", "format": "in vitro ADME"}, "Hepatocytes Clint, rat": {"experiment": "Hepatocytes Clint, rat", "format": "in vitro ADME"}, "CYPs (HLM.)": {"system": "CYPs (HLM.)", "experiment": "CYP inhibition in HLM", "format": "in vitro ADME, human"}, "[6]": {"experiment": "Microsomal metabolism, human", "format": "in vitro ADME"}, "[7]": {"conditions": "Col4a3 KO mice at the age of 8 weeks, individual mouse values"}},
  "note": "Values joined by “and” are separate entries in the source; they are usually repeats but may differ in a detail not shown here. Equal entries are not always repeated.",
  "data": [
    {"compound": "O=C(N[C@@H]1CCCC[C@H]1O)c1ccc(OCC(F)(F)F)c(-c2ccc(Cl)c(Cl)c2)n1", "note": "[Cpd A]", "values": [
      {"measurement": "ABCA1 percentage of induction, average", "setting": "human THP1 macrophages; average of 3", "result": 91, "unit": "%"},
      {"measurement": "ABCA1 Efflux %", "setting": "human THP1 macrophages; average(SEM)", "result": "91(4.9) %"},
      {"measurement": "ABCA1 percentage of induction", "setting": "human THP1 macrophages; single experiments (3 per compound)", "result": "81% and 94% and 97%"},
      {"measurement": "ABCA1 protein levels in whole-cell lysates", "setting": "ABCA1 protein", "result": "significantly increased ABCA1 protein levels"}
    ]},
    {"compound": "O=C(N[C@@H]1CCCC[C@H]1O)c1cnc(OCC(F)(F)F)c(-c2ccc(Cl)c(Cl)c2)c1", "note": "[Cpd G]", "values": [
      {"measurement": "bioavailability", "setting": "[1]", "result": 105, "unit": "%"},
      {"measurement": "clearance", "setting": "[1]", "result": 2.5, "unit": "mL/min/kg"},
      {"measurement": "half-life", "setting": "[1]", "result": 8.9, "unit": "h"},
      {"measurement": "Vd", "setting": "[1]; read-out: Vss", "result": 1.5, "unit": "L/kg"},
      {"measurement": "MESANGIAL EXPANSION (scale 1-5), Median", "setting": "Col4a3 KO mice [2]", "result": 2},
      {"measurement": "MESANGIAL EXPANSION (scale 1-5)", "setting": "Col4a3 KO mice [2]; single animals", "result": "2 and 2.5 and 1.5"},
      {"measurement": "RENAL CHOL.ESTERS, Median", "setting": "Col4a3 KO mice [3]; Col4A3 KO mice, treated for 28 days, group median", "result": 2.615, "unit": "nmol CE/ mg protein"},
      {"measurement": "RENAL CHOL.ESTERS (CE normalized to total proteins, kidney)", "setting": "Col4a3 KO mice [3]; Col4A3 KO mice, treated for 28 days, individual animals", "result": "4.92 nmol CE/ mg protein and 2.49 nmol CE/ mg protein and 0.13 nmol CE/ mg protein and 2.74 nmol CE/ mg protein"},
      {"measurement": "Renal Total Cholesterol", "setting": "Col4a3 KO mice [3]; [7]", "result": "40.2 nmol TC/ mg protein and 29.4 nmol TC/ mg protein and 30.8 nmol TC/ mg protein"},
      {"measurement": "Renal Trig.", "setting": "Col4a3 KO mice [3]; [7]", "result": "89.04 nmol TG/ mg protein and 64.42 nmol TG/ mg protein and 121.19 nmol TG/ mg protein and 83.13 nmol TG/ mg protein"},
      {"measurement": "Cholesterol ester content in kidneys", "setting": "Col4a3 KO mice [3]; Col4a3 KO, Cpd G 28 days", "result": "significantly reduced cholesterol ester content"},
      {"measurement": "IL1β in kidney cortex", "setting": "[4]; ADR + Cpd G", "result": "reduced"},
      {"measurement": "MCP-1 in kidney cortex", "setting": "[4]; ADR + Cpd G", "result": "reduced"},
      {"measurement": "Relative MCP1/PGK1 mRNA Expression (RQ)", "setting": "[4]; kidney cortexes after ADR injection, No ADR group as reference, individual mice", "result": "0.39 and 4.08 (2×) and 0.99 and 0.91 and 1.65 (2×) and 0.3536 and 0.2392 and 0.3907 and 0.9918 and 0.906 and 0.35 and 0.24"},
      {"measurement": "Relative MCP1/PGK1 mRNA Expression (RQ), Median", "setting": "[4]; kidney cortexes after ADR injection, group median", "result": 0.91},
      {"measurement": "Relative IL1-B/PGK1 mRNA Expression (RQ)", "setting": "[4]; kidney cortexes, ADR, 100 mg/Kg/Day for 28 days, No ADR group as reference, individual mice, 100 mg/kg/day", "result": "0.44 and 1.49 and 0.38 and 0.75 and 0.61 and 2.626 and 0.452 and 0.4443 and 1.494 and 0.3797 and 0.7453 and 0.6111 and 2.63 and 0.45"},
      {"measurement": "Relative IL1-B/PGK1 mRNA Expression (RQ), Median", "setting": "[4]; kidney cortexes, ADR, 100 mg/Kg/Day for 28 days, group median", "result": 0.61},
      {"measurement": "SURVIVAL CURVE: day with status 1= dead", "setting": "Col4a3 KO mice [5]; Col4A3 KO, Cpd G 100 mg/Kg/day started at week 6, single animals", "result": "67 days and 70 days and 73 days and 78 days"},
      {"measurement": "Increased life span compared to controls", "setting": "Col4a3 KO mice [5]; Col4a3 KO, treatment initiated at 6 weeks of age", "result": "approximately 15%"},
      {"measurement": "Covalent Binding", "setting": "Covalent Binding", "result": "No flag"},
      {"measurement": "Hepatocytes Clint (Fh%) (r/h)", "setting": "Hepatocytes Clint, human", "result": "> 80", "unit": "%"},
      {"measurement": "Hepatocytes Clint (Fh%) (r/h)", "setting": "Hepatocytes Clint, rat", "result": 70, "unit": "%"},
      {"measurement": "CYPs (HLM.)", "setting": "CYPs (HLM.)", "result": "> 25", "unit": "µM"},
      {"measurement": "Microsomes (MAB%) (r/h)", "setting": "[6]", "result": 82, "unit": "%"}
    ]}
  ]
}
